In patent US10711006B2, “Selective Bruton's tyrosine kinase inhibitor and use thereof” (HANGZHOU HERTZ PHARMACEUTICAL CO., LTD., priority 2016, dated 2020):

Tests used:
[1] = Oral pharmacokinetic experiment in SD rats; assay type: in vivo; conditions: for oral bioavailability relative to ibrutinib: oral 10 mg/kg; for AUC0-C(ng/h/mL) / AUC0-t (ng/h/mL) / Cmax / Tmax / half-life: oral (intragastric) 10 mg/kg; for AUC0-C(ng/h/mL) / AUC0-t (ng/h/mL) / bioavailability / Cmax / Tmax / half-life: mean n = 3; for bioavailability / Cmax / Tmax / half-life: rat, plasma; for bioavailability: oral 10 mg/kg vs intravenous 2 mg/kg
Description: SD rats were used as experimental animals and were subjected to intragastric administration in a dose of 10 mg/kg and tail-vein intravenous injection in a dose of 2 mg/kg. The tail-vein blood sampling time points in the intragastric administration were 0.17, 0.33, 0.5, 1, 1.5, 2, 4, 6, 8, 12, and 24 hours; the blood sampling time points in the intravenous administration were 0.05, 0.1, 0.17, 0.5, 1, 2, 4, 6, 8, 12, and 24 hours. 0.3 ml of whole blood was taken, and 0.1 ml of plasma after centrifugation was taken and analyzed by LC-MS.

FGR = FGR (Homo sapiens (Human), UniProt P09769); assay: Kinase selectivity experiment, FGR; assay type: biochemical; conditions: read-out: Inhibitory activity against FGR (IC50)
FGR, sequence (P09769 whole entry, species assumed): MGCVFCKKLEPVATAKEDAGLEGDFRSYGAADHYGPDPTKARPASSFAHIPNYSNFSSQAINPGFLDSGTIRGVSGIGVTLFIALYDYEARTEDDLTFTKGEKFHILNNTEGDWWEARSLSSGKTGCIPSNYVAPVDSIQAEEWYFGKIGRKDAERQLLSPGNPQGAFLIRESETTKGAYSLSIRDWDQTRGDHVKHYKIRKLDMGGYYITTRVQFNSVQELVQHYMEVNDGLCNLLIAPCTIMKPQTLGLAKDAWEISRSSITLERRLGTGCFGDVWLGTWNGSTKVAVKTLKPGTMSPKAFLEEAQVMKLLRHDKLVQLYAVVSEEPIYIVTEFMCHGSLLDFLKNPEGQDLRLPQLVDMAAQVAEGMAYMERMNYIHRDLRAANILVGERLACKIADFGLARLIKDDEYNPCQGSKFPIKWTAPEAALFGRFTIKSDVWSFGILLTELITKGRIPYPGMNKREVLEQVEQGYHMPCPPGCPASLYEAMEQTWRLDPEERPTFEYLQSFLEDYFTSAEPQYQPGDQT
Description: (§1) A 1× kinase base buffer and a reaction stop buffer for respective kinases in the experiment were prepared as required.
(§2) Preparation of Compounds to be Tested:
(§3) 2) diluting each compound at a 5-fold concentration gradient in a 96-well plate to 6 to 7 concentrations and ensuring that the drug volume in each well was 10 μl; and at the same time adding 100 μl of DMSO to prepare a blank control group and also preparing a negative control group without the enzyme substrate; and
(§4) 3) preparing another 96-well plate, adding 10 μl of each of the above compounds to 90 μl of the 1× kinase base buffer and mixing for 10 minutes to be uniform.
(§5) Preparation of the Plate to be Tested:
(§6) 1) 5 μl of the mixed solution prepared as above in the 96-well plate was taken and transferred to a 384-well plate, with two replicate wells for each compound.
(§7) 1) Preparing a 2.5× kinase solution and adding a corresponding 1× kinase base buffer;
(§8) 2) preparing a 2.5× polypeptide solution and adding FAM-labeled polypeptide and ATP in the 1× kinase base buffer; and
(§9) 3) adding 10 μl of 2.5× kinase solution to a 384-well plate to be tested, placing in a room-temperature environment for 10 minutes, and then adding 10 μl of the 2.5× polypeptide solution, reacting at 28° C. for 1 hour, and then adding 25 μl of a reaction stop buffer.
(§10) The Caliper program reads the plate and uses the data to obtain the IC50 values of the corresponding compounds against kinases.

ITK = ITK (Homo sapiens (Human), UniProt Q08881); assay: Kinase selectivity experiment, ITK; assay type: biochemical; conditions: read-out: Inhibitory activity against ITK (IC50)
ITK, sequence (Q08881 whole entry, species assumed): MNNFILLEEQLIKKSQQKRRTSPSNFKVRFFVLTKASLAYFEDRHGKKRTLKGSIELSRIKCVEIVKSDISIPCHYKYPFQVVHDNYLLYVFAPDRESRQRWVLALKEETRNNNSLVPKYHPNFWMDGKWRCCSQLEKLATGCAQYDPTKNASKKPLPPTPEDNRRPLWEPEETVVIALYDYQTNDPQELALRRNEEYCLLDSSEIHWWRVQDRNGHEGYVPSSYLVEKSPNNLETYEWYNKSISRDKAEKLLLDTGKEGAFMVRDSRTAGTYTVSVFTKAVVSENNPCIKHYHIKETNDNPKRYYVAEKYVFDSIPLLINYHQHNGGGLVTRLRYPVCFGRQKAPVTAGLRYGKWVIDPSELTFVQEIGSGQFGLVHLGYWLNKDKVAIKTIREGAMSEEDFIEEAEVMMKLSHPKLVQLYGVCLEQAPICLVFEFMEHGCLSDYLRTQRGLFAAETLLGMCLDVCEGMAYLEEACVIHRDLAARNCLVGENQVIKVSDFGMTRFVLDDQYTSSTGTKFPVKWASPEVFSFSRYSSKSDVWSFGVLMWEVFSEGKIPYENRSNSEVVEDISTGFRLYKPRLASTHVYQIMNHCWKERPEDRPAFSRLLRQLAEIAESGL
Description: as §1, §2, §3, §4, §5, §6, §7, §8, §9, §10

FLT3 = FLT3 (Homo sapiens (Human), UniProt P36888); assay: Kinase selectivity experiment, FLT3; assay type: biochemical; conditions: read-out: Inhibitory activity against FLT3 (IC50)
FLT3, sequence (P36888 27-993, species assumed): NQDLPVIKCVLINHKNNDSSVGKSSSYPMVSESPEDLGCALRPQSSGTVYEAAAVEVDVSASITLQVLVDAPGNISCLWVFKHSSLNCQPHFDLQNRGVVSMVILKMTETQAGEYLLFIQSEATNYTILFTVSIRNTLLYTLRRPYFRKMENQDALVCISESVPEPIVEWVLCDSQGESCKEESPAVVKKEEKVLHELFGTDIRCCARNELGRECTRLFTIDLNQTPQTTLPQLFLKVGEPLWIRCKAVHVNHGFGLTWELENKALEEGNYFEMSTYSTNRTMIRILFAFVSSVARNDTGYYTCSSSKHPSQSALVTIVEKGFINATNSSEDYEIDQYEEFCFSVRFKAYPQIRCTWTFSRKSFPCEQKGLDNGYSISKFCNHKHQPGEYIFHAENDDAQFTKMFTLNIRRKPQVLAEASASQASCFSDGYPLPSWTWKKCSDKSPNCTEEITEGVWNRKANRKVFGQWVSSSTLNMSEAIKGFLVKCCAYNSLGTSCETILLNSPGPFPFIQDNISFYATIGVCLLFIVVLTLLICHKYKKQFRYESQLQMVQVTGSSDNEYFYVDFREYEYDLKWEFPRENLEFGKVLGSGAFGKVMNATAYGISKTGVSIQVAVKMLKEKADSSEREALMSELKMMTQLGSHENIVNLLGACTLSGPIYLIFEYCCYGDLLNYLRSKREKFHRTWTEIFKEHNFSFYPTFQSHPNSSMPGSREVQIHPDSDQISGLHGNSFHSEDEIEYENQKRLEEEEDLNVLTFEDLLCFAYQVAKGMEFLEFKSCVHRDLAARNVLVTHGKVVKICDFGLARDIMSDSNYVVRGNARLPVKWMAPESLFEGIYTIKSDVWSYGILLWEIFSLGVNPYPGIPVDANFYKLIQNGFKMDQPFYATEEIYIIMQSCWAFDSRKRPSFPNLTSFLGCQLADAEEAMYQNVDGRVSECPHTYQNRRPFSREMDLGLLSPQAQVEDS
Description: as §1, §2, §3, §4, §5, §6, §7, §8, §9, §10

BLK = BLK (Homo sapiens (Human), UniProt P51451); assay: Kinase selectivity experiment, BLK; assay type: biochemical; conditions: read-out: Inhibitory activity against BLK (IC50)
BLK, sequence (P51451 whole entry, species assumed): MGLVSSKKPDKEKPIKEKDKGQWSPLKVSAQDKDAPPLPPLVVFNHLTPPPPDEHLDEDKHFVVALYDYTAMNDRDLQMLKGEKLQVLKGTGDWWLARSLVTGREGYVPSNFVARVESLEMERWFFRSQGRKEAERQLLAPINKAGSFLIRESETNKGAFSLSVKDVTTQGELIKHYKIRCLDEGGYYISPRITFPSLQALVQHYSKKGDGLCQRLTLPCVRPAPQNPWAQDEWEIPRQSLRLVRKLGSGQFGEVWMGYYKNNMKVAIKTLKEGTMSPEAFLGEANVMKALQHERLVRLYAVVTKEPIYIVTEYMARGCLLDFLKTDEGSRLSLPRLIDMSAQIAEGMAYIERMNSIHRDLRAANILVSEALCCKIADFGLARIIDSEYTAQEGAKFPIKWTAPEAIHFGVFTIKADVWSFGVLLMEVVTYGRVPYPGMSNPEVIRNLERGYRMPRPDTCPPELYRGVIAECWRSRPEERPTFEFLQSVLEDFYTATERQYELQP
Description: as §1, §2, §3, §4, §5, §6, §7, §8, §9, §10

[2] = system: diffuse giant B-cell lymphoma (OCI-LY10); assay: In-vitro tumor cell proliferation inhibition (CCK-8), OCI-LY10; conditions: Homo sapiens, OCI-Ly10, 72 h, read-out: Tumor cell proliferation inhibitory activity (IC50, nM) OCI-LY10
Description: The in-vitro antitumor activity assay was carried out on the synthesized compound by using different solid tumors and leukemia cell lines:
Cell lines: human lung cancer cell (A549), human mantle cell lymphoma (MINO), diffuse giant B-cell lymphoma (OCI-LY10), and human diffuse large B lymphoma (TMD-8).
Preparation method of the drug: the drug was dissolved in DMSO to make a 10 mM stock solution, and then the stock solution was diluted in a certain ratio to obtain 5 different concentrations (test concentration 100×). In-vitro culture of tumor cells:
The tumor cells A549, MINO, OCI-LY10, and TMD-8 were seeded in a 96-well plate at 4000 cells/200 μL/well and then incubated overnight at 37° C. in a 5% CO2 cell culture incubator. 2 μL of the compound was added to each well to final concentrations of 50 μM, 10 μM, 2 μM, 0.4 μM, and 0.08 μM and then incubated for 72 hours at 37° C. in a 5% CO2 cell incubator, with DMSO (2%) as a control group. […] Wells loaded with the corresponding amount of cell culture fluid the and CCK-8 solution but no cells were considered as blank controls. The absorbance (OD value) was measured at 450 nm using a microplate reader, and the obtained data was used to calculate IC50.

[3] = system: Mino subcutaneous xenograft tumor; assay: In-vivo pharmacodynamic study on Mino subcutaneous xenograft tumor models; conditions: CB17 SCID mice, intragastric, twice a day
Description: In CB17 SCID mice, 0.2 mL of cell suspension containing 5×10^6 Mino cells was subcutaneously inoculated into the right back of each mouse, and when the mean tumor volume reaches approximately 139.94 mm3 (day 26 after inoculation), group administration was started (intragastric administration, twice a day, 14 days in total). Animals were monitored daily for health and mortality, and tumor diameters were measured twice a week using vernier calipers to see if tumor growth could be inhibited, delayed, or cured.

hERG potassium channel = hERG potassium channel (Homo sapiens (Human), UniProt Q12809); assay: hERG potassium channel inhibitory activity, manual patch clamp in CHO cells; assay type: cell-based; conditions: for IC50: CHO cells stably expressing hERG, whole-cell patch clamp
hERG potassium channel, sequence (Q12809 whole entry): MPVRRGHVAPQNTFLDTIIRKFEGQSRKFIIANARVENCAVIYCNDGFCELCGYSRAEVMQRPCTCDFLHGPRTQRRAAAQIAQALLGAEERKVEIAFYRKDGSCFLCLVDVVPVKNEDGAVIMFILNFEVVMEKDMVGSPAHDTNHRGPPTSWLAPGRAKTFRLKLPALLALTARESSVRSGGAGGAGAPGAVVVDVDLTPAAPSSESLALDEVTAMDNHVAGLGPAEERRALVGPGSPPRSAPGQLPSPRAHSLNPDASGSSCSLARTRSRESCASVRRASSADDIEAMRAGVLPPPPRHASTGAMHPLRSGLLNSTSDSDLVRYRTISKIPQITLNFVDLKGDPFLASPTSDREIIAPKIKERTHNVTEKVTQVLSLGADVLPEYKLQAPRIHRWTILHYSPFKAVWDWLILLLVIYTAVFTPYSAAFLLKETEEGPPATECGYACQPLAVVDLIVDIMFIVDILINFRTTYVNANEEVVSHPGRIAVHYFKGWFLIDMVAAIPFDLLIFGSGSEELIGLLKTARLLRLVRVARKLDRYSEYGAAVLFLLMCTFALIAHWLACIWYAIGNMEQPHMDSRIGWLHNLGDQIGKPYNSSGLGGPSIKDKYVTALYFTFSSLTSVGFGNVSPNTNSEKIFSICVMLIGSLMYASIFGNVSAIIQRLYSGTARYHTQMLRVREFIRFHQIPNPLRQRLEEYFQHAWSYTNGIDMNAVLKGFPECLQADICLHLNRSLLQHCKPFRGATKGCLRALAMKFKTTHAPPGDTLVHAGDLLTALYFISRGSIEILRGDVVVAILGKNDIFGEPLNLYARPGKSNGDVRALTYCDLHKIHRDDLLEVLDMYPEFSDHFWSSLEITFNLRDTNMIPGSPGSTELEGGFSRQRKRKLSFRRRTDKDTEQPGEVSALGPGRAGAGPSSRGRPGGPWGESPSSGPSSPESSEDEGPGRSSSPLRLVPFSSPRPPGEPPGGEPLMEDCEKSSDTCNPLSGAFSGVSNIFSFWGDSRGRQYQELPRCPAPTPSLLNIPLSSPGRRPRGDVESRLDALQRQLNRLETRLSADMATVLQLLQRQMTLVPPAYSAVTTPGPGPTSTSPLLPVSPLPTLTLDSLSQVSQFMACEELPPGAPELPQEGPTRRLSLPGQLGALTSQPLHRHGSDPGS

CSK = CSK (Homo sapiens (Human), UniProt P41240); assay: Kinase selectivity experiment, CSK; assay type: biochemical; conditions: read-out: Inhibitory activity against CSK (IC50)
Description: as §1, §2, §3, §4, §5, §6, §7, §8, §9, §10

Row | oral bioavailability relative to ibrutinib [1] | AUC0-C(ng/h/mL) [1] | AUC0-t (ng/h/mL) [1] | bioavailability [1] | Cmax [1] | Tmax [1] | half-life [1] | IC50 (FGR) | IC50 (ITK) | IC50 (FLT3) | IC50 (BLK) | IC50 [2] | IC50 (CSK) | Structure (SMILES) | TGI*(14 days) (%) calculated on the basis of tumor volume [3] | TGI**(14 days) (%) calculated on the basis of tumor weight [3] | IC50 (hERG potassium channel) | hERG IC50 relative to Compound II (hERG potassium channel; IC50 ratio to Compound II) | hERG IC50 relative to ibrutinib (hERG potassium channel; IC50 ratio to ibrutinib)
1 | 1.67 times | 698 ng·h/mL | 624 ng·h/mL | 20.9% | 292 ng/mL | 0.333 h | 6.17 h | > 1000 nM | > 1000 nM | > 1000 nM | 30 nM | 2.5 nM | > 1000 nM | C=CC(=O)N1CCC[C@@H](n2nc(-c3ccc(Oc4ccccc4)nc3)c3c(N)ncnc32)C1 [Compound 15a, (R)-1-(3-(4-amino-3-(6-phenoxypyridin-3-yl)-1H-pyrazolo[3,4-d]pyrimidin-1-yl)piperidin-1-yl) prop-2-en-1-one] | 65.01% | 61.00% | 15500 nM | 2.98 times | 4.41 times
2 | 4.62 times | 2140 ng·h/mL | 2080 ng·h/mL | 57.8% | 548 ng/mL | 0.75 h | 1.7 h | > 1000 nM | > 1000 nM | > 1000 nM | 5.4 nM | 2.17 nM | > 1000 nM | C=CC(=O)N1CC[C@@H](n2nc(-c3ccc(Oc4ccccc4)nc3F)c3c(N)ncnc32)C1 [Compound 24a, (R)-1-(3-(4-amino-3-(2-fluoro-6-phenoxypyridin-3-yl)-1H-pyrazolo[3,4-d]pyrimidin-1-yl)pyrrolidin-1-yl)prop-2-en-1-one] | 73.80% | 65.19% | 7660 nM |  | 
